The source made the active and inactive calls.
Experiments:
[1] = target: G-protein coupled receptor 55 (Homo sapiens, UniProt Q9Y2T6); experiment: selective activators of receptor GPR55 – imaging, U2OS cells, beta-arrestin-GFP redistribution, primary screen (AID 1961); format: functional
Hexokinase = Hexokinase (Trypanosoma brucei, UniProt Q38C41); experiment: Confirmation assay for inhibitors of Trypanosoma brucei hexokinase 1-Analogue-first series. [Related pubchem assays (depositor defined):AID1430, AID1632, AID2516, AID2560, AID2579, AID2600, AID449725, AID492951]; format: functional
Sequence of Hexokinase (Q38C41 whole entry): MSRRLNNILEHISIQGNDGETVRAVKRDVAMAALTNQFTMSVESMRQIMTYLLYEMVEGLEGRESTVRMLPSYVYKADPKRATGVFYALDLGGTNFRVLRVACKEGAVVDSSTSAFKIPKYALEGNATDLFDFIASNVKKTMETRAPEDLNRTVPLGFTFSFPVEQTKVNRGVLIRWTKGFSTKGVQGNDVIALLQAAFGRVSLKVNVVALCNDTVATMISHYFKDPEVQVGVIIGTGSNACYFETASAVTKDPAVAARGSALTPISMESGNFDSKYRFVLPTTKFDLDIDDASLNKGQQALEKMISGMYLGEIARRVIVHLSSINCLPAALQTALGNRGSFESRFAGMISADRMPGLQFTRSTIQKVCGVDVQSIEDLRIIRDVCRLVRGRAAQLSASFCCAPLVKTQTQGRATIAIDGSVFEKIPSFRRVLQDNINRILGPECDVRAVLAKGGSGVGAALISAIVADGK

[2] = target: Voltage-dependent T-type calcium channel subunit alpha-1H (Homo sapiens, UniProt O95180); experiment: human CACNA1H calcium influx blockade – cell-based, synthetic library set 1, calcium flux (AID 493022); format: functional
Sequence of Voltage-dependent T-type calcium channel subunit alpha-1H (O95180 whole entry): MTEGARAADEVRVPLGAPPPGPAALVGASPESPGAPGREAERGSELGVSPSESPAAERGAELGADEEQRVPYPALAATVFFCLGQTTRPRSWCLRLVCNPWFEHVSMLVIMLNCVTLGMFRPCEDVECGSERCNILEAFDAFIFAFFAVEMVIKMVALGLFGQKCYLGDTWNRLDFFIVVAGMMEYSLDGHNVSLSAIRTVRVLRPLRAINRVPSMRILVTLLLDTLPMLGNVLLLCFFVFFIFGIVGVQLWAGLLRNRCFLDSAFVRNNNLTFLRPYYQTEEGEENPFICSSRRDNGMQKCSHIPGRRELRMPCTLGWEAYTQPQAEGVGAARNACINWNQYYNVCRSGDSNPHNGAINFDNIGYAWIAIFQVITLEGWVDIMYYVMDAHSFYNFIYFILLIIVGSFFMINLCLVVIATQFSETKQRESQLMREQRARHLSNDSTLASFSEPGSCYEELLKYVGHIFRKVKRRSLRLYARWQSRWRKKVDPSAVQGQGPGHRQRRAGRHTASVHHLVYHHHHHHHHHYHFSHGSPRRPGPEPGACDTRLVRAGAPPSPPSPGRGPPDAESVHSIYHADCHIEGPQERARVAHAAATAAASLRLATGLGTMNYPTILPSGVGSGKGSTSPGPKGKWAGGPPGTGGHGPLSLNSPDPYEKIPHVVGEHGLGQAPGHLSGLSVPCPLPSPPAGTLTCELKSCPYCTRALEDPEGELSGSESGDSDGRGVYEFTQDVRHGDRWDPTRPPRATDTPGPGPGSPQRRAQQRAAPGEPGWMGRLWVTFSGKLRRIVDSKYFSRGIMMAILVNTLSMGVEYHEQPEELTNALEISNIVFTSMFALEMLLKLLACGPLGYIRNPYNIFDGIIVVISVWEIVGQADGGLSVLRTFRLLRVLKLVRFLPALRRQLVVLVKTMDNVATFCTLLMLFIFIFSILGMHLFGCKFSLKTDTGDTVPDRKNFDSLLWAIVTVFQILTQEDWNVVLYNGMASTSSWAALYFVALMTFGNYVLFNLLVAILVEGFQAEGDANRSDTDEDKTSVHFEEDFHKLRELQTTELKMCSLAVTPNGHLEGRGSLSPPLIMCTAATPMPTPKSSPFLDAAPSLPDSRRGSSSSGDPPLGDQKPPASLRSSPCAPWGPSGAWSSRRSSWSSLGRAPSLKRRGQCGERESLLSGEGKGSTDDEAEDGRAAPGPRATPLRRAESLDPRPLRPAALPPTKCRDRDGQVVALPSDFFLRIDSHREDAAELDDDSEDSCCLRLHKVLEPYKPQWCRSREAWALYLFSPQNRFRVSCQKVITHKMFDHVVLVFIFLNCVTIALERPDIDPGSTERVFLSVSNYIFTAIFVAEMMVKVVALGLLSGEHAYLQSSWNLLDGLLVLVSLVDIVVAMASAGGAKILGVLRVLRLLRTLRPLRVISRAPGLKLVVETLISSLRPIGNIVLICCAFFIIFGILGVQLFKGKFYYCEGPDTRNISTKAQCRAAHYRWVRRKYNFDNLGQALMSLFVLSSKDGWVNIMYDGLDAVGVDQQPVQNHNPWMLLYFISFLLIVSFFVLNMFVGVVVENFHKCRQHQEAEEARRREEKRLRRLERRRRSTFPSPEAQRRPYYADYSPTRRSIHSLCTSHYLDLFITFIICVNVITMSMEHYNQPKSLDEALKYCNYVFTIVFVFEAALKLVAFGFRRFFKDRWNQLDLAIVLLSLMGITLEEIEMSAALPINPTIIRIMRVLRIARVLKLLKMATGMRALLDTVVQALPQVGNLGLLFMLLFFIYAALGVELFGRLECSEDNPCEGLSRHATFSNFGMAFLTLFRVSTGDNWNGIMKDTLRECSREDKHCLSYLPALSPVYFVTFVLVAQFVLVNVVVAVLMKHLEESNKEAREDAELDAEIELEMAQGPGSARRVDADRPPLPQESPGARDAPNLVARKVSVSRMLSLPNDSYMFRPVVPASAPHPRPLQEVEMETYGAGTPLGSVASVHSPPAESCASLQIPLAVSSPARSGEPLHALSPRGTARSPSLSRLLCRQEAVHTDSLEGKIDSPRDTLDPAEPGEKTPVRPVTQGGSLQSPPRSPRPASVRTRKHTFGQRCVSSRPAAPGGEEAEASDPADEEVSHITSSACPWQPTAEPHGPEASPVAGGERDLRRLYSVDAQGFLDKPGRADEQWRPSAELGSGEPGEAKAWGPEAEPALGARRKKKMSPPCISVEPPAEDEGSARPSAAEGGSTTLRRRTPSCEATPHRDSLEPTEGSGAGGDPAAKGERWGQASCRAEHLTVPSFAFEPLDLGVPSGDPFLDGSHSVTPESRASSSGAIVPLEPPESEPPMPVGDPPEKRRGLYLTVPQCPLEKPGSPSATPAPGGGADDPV

[3] = target: T1, Eukaryotic translation initiation factor 4H (Homo sapiens, UniProt Q15056); experiment: eIF4H binding inhibition – biochemical, uHTS, fluorescence polarization, translation initiation inhibitor project, primary screen (AID 2012)
[4] = target: T2, Polyadenylate-binding protein 1 (Homo sapiens, UniProt P11940); experiment: blockers of PABP interaction with poly(A) – biochemical, fluorescence polarization, […] (AID 2014)
T2 sequence (P11940 whole entry): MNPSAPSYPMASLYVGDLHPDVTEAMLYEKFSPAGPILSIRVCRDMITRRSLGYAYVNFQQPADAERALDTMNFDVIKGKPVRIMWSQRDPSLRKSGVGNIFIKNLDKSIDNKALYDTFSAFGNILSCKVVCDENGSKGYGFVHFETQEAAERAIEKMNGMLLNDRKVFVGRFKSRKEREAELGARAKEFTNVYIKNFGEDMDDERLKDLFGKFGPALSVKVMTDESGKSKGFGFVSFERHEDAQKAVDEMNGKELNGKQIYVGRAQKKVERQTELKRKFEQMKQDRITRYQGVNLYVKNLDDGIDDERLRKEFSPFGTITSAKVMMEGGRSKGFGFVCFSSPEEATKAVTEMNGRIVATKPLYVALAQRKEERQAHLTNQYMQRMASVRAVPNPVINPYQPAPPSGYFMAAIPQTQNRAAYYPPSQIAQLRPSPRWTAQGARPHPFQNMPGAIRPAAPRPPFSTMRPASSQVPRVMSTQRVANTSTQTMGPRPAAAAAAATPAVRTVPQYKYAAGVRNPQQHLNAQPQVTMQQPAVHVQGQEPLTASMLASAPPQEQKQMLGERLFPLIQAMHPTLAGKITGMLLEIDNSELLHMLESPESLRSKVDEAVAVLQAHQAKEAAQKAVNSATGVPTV

[5] = target: T1, Eukaryotic translation initiation factor 4H; experiment: inhibitors of translation initiation factor eIF4H – SAR follow-up (AID 435011); format: functional
[6] = target: T2, Polyadenylate-binding protein 1; experiment: PABP inhibition in translation initiation, SAR follow-up (AID 435018); format: functional
Trypsin = Trypsin (Sus scrofa, UniProt P00761); experiment: trypsin protease activity blockade – biochemical, quenched peptide fluorescence, cherry-pick, selectivity assay for Rce1 protease inhibitor project, dose response (AID 488789)
[7] = target: T3, Delta-type opioid receptor (Homo sapiens, UniProt P41143); experiment: HTS Image-Based Screen for Antagonists of the DOR Receptor. [Related pubchem assays (depositor defined):AID1777, AID1785, AID1786, AID2133]; format: functional
T3 sequence (P41143 whole entry): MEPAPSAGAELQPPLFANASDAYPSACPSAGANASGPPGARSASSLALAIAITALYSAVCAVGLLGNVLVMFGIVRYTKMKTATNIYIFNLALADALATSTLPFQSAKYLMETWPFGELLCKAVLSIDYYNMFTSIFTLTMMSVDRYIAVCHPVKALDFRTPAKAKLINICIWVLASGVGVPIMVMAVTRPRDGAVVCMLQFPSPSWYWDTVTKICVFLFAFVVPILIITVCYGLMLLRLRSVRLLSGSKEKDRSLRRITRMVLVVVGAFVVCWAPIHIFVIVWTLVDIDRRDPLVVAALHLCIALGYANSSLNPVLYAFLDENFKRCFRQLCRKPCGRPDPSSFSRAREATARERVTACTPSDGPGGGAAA

Mu-type opioid receptor [8] = target: T4, Mu-type opioid receptor (Homo sapiens, UniProt P35372); experiment: HTS Image-Based Screen for Agonists of the MOR Receptor. [Related pubchem assays (depositor defined):AID1777, AID1785, AID1786, AID2133]; format: functional
T4 sequence (P35372 whole entry): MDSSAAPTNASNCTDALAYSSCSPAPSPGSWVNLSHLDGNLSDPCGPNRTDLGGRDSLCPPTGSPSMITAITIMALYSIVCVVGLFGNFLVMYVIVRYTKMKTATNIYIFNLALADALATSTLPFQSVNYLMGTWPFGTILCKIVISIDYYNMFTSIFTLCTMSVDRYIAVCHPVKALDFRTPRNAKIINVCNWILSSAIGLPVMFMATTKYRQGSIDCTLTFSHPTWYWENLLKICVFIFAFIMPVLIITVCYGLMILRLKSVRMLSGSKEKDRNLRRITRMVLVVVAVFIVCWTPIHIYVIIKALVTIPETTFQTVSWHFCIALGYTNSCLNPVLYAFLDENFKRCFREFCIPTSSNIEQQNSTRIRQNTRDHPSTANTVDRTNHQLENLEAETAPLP

[9] = target: T3, Delta-type opioid receptor; experiment: HTS Image-Based Screen for Agonists of the DOR Receptor. [Related pubchem assays (depositor defined):AID1777, AID1786, AID2133]; format: functional
[10] = target: T5, Kappa-type opioid receptor (Homo sapiens, UniProt P41145); format: functional
T5 sequence (P41145 whole entry): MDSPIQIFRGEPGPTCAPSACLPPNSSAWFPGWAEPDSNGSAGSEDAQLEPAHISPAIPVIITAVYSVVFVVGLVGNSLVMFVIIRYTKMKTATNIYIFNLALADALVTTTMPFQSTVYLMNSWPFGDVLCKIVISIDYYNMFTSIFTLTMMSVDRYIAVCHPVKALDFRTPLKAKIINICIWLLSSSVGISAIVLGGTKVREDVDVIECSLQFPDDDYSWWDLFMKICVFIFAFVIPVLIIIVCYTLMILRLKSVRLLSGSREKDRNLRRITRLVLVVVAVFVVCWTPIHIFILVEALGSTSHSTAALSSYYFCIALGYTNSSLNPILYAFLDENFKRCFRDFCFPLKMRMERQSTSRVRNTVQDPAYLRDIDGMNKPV

[11] = target: T5, Kappa-type opioid receptor; format: functional; remark: listed apart in the source
[12] = target: T5, Kappa-type opioid receptor; experiment: SAR analysis of small molecule agonists of the kappa opioid receptor via a luminescent beta-arrestin assay. [Related pubchem assays (depositor defined):AID1777, AID1786, AID1966, AID2133, AID2136, AID2348, AID2352, AID2357, AID2359, AID2370, AID2420, AID2478, AID2491, AID2492, AID2493, AID2497, AID2498, AID2500, AID449737, AID488822, AID488842]; format: functional
Mu-type opioid receptor [13] = target: T4, Mu-type opioid receptor; experiment: mu opioid receptor activators, image-based, SAR follow-up (AID 2352); format: functional
[14] = target: T3, Delta-type opioid receptor; experiment: DOR agonists, SAR follow-up, image-based (AID 2370); format: functional
[15] = target: T5, Kappa-type opioid receptor; experiment: kappa opioid receptor blockers, image-based, SAR follow-up (AID 2348); format: functional
Mu-type opioid receptor [16] = target: T4, Mu-type opioid receptor; experiment: mu opioid receptor blockers – image-based, SAR follow-up (AID 2420); format: functional;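 note: compounds added before stimulation of receptor with agonist DAMGO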
[17] = target: T5, Kappa-type opioid receptor; experiment: kappa opioid receptor activation potency – imaging, image-based, SAR follow-up (AID 2359); format: functional
[18] = target: T3, Delta-type opioid receptor; experiment: delta opioid receptor blockers – image-based, SAR follow-up (AID 2357); format: functional

## Cc1c(C(=O)N(C)C2CCCCC2)sc2ncnc(N3CCN(c4ccccc4)CC3)c12
[1]
  EC50: 5.84 µM (active)

## COc1ccc(C(=O)Nc2cc(C)ccc2C(=O)O)cc1
Hexokinase
  IC50: > 25 µM (inactive)

## O=C(COc1ccccc1Cl)Nc1nnc(-c2ccc(F)cc2)o1
[2]
  EC50: 4.6 µM (active)

## O=C(Nc1cccc2ncccc12)c1ccc(Cl)cc1
[3]
  IC50: > 100 µM (inactive)
[4]
  IC50: 9.09 µM (active)
[5]
  IC50: 6.11 µM (active)
[6]
  IC50: 2.79 µM (active)

## Cc1ccc(S(=O)(=O)c2cn(C)c3cc(N4CCOCC4)c(F)cc3c2=O)cc1
Trypsin
  AC50: 55.8 µM (active)

## Clc1ccc(CSc2nnc(-c3ccccn3)n2Cc2ccco2)c(Cl)c1
[7]
  IC50: > 32 µM (inactive)
Mu-type opioid receptor [8]
  EC50: > 32 µM (inactive)
[9]
  EC50: > 32 µM (inactive)
[10]
  EC50: 1.25 µM
[11]
  EC50: 2.21 µM
[12]
  EC50: 1.86 µM (active)
Mu-type opioid receptor [13]
  EC50: > 32 µM (inactive)
[14]
  EC50: > 32 µM (inactive)
[15]
  IC50: > 32 µM (inactive)
Mu-type opioid receptor [16]
  IC50: > 32 µM (inactive)
[17]
  EC50: 0.929 µM (active)
[18]
  IC50: > 32 µM (inactive)

Source: ChEMBL document CHEMBL1201862, “PubChem BioAssay data set” (2004)
